Experiments:
[1] = test system: A2780 human ovarian carcinoma cells; assay: Co-culture killing of human ovarian carcinoma cells (Example 4); format: cell-based; conditions: pure drug, 100 μg cisplatin to 5×10^6 A2780 cells, 72 hours; FIG. 4E
Procedure: (§1) the third group of H22 mouse hepatoma cells and the third group of the A2780 human ovarian carcinoma cells are left without any treatment.
(§2) 4) half of the micro-particles taken from the above test group, and half of the cell vesicles taken from the control group are respectively co-cultured with 5×10^4 tumor cells taken from the third group of tumor cells of different types for 72 hours within a 24-pore plate, the death of the tumor cells is observed, wherein the cell vesicles that are co-cultured with the tumor cells are the cell vesicles derived from the same type of tumor cells, and the micro-particles that are co-cultured with the tumor cells are the micro-particles formed after the cell vesicles derived from the same type of tumor cells have the chemotherapeutic drug wrapped therein;

H22 mouse hepatoma cells = assay: Co-culture killing of mouse hepatoma cells (Example 4); format: cell-based; conditions: pure drug, 10 μg methotrexate to 5×10^6 H22 cells, 72 hours; FIG. 4B
Procedure: as §1, §2

Compound	death of the tumor cells [1]	death of the tumor cells (H22 mouse hepatoma cells)
N.N.[Cl][Pt][Cl] [cisplatin]	there are still certain amount of tumor cells survived	
CN(Cc1cnc2nc(N)nc(N)c2n1)c1ccc(C(=O)N[C@@H](CCC(=O)O)C(=O)O)cc1 [methotrexate]		there are still certain amount of tumor cells survived

Source: patent US9351931B2, “Pharmaceutical preparation for tumor chemotherapy and method for producing the same” (HUBEI SOUNDNY BIOTECHNOLOGY CO., LTD., priority 2012, dated 2016)
